Source: patent US20240251788A1, “HERBICIDE/SAFENER COMBINATION BASED ON SAFENERS FROM THE CLASS OF SUBSTITUTED [(1,5-DIPHENYL-1H-1,2,4-TRIAZOL-3-YL)OXY]ACETIC ACIDS AND THEIR SALTS” (Bayer Aktiengesellschaft, priority 2021, published 2024)

What was measured:
[1] = test system: summer barley crop plant (HORVS: cv. Quench); test: Reduction in herbicide damage to summer barley by safener, greenhouse post-emergence application, visual scoring; format: in vivo; design: key to Reduction in the damage by safener (difference): difference in % visual damage, 0-100% scale vs untreated plants; settings: for Reduction in the damage by safener (difference) / Reduction in the damage by safener (in %): summer barley (HORVS); for Damage to the plant by the herbicide (in %): in vivo
Method: (§1) The seeds of the crop plants to be treated are laid out in soil in woodfiber pots (diameter ˜ 7 cm), covered with soil and grown in a greenhouse under good conditions for germination and growth. The trial plants were treated at the early leaf stage (BBCH10-BBCH12).
The herbicides used (component B) were used in the following formulations: • B2.81: WP • B2.85: WP • B2.92: WP • Clomazone: WP • Ethofumesate: WP • Flufenacet: SC • Fluroxypyr: EC • Saflufenacil: WP • Thiencarbazone-methyl: WP • Iodosulfuron-methyl-sodium: WP • Bifenox: WP • Glyphosate potassium salt: SL • Topramezone: WP
(§2) The dose of the respective herbicides was chosen here such that it causes an average degree of visually apparent damage (min. 20%, max. 75%) compared to untreated crop plants at the evaluation time on a control group of crop plants without safener treatment that were included in the same trial.
(§3) In the respective herbicide/safener combinations, the safeners (component A) in the form of wettable powders (WP) were added in the dose specified; in these cases, herbicide and safener are thus applied as a mixture.
(§4) Application was effected in each case on to the above-ground parts of the plant, at a water application rate corresponding to 300 l/ha and with addition of wetting agent (Mero, 1.5 l/h a).
In the applications that contained pinoxaden or topramezone, the herbicidal effect was enhanced by additionally adding ammonium sulfate (2 kg/ha).
(§5) After application, the plants were cultivated under good growth conditions in a greenhouse. On account of the different mechanisms of action of the herbicides used, the damaging effect of the herbicides was fully manifested at different times depending on the herbicide, and this in turn forms the basis for assessment of the safener action in the mixtures. Therefore, the damage was scored visually, depending on the herbicide/mixture, between 11 and 21 days after application.
(§6) The damage effect was assessed visually on a scale of 0-100% by comparison with untreated control plants, and averaged over 2 repeats per treatment.

[2] = test system: summer wheat crop plant (TRZAS; cv. Triso); test: Reduction in herbicide damage to summer wheat by safener, greenhouse post-emergence application, visual scoring; format: in vivo; design: key to Reduction in the damage by safener (difference): difference in % visual damage (0-100% scale vs untreated) due to safener; settings: for Reduction in the damage by safener (difference) / Reduction in the damage by safener (in %): summer wheat (TRZAS); for Damage to the plant by the herbicide (in %): in vivo
Method: as §1
The herbicides used (component B) were used in the following formulations: • B2.81: WP • B2.85: WP • B2.92: WP • Cinmethylin: EC • Clomazone: WP • Ethofumesate: WP • Flufenacet: SC • Pinoxaden: WP • Saflufenacil: WP • Bicyclopyrone: WP • Picloram: WP • Metazachlor: SC • Flumioxazin: WP • Glyphosate potassium salt: SL • Topramezone: WP
as §2, §3, §4
In the applications that contained pinoxaden, bicyclopyrone or topramezone, the herbicidal effect was enhanced by additionally adding ammonium sulfate (2 kg/ha).
as §5, §6

[3] = herbicide B2.28 (flufenacet) 2000 g a.i./ha + safener 100 g a.i./ha
[4] = herbicide B2.28 (flufenacet) 4000 g a.i./ha + safener 100 g a.i./ha
[5] = herbicide B2.34 (iodosulfuron) 10 g a.i./ha + safener 100 g a.i./ha
[6] = herbicide B2.68 (thiencarbazone-methyl) 30 g a.i./ha + safener 100 g a.i./ha
[7] = herbicide B2.81 15 g a.i./ha + safener 100 g a.i./ha
[8] = herbicide B2.85 5 g a.i./ha + safener 100 g a.i./ha
[9] = herbicide B2.92 5 g a.i./ha + safener 100 g a.i./ha
[10] = herbicide B4.28 (topramezone) 300 g a.i./ha + safener 100 g a.i./ha
[11] = herbicide B5.21 (ethofumesate) 2000 g a.i./ha + safener 100 g a.i./ha
[12] = herbicide B6.4 (fluroxypyr) 500 g a.i./ha + safener 100 g a.i./ha
[13] = herbicide B7.5 (glyphosate) 400 g a.i./ha + safener 100 g a.i./ha
[14] = herbicide B8.6 (bifenox) 600 g a.i./ha + safener 100 g a.i./ha
[15] = herbicide B1.2 (bicyclopyrone) 400 g a.i./ha + safener 100 g a.i./ha
[16] = herbicide B1.8 (pinoxaden) 200 g a.i./ha + safener 100 g a.i./ha
[17] = herbicide B2.38 (metazachlor) 4000 g a.i./ha + safener 100 g a.i./ha
[18] = herbicide B5.13 (cinmethylin) 500 g a.i./ha + safener 100 g a.i./ha
[19] = herbicide B5.13 (cinmethylin) 1000 g a.i./ha + safener 100 g a.i./ha
[20] = herbicide B5.14 (clomazone) 200 g a.i./ha + safener 100 g a.i./ha
[21] = herbicide B5.26 (flumioxazin) 20 g a.i./ha + safener 100 g a.i./ha
[22] = herbicide B6.5 (picloram) 400 g a.i./ha + safener 100 g a.i./ha
[23] = herbicide B9.10 (saflufenacil) 20 g a.i./ha + safener 100 g a.i./ha

Q: How did the “Reduction in the damage by safener (difference)” value (from here on “Reduction … (difference)”) [1, 3] turn out when COC(=O)COc1nc(-c2ccc(Cl)cc2F)n(-c2ccc(F)cc2F)n1 [Compound A3, methyl {[5-(4-chloro-2-fluorophenyl)-1-(2,4-difluorophenyl)-1H-1,2,4-triazol-3-yl]oxy}acetate] was run?
A: 15

Q: What about the “Reduction in the damage by safener (in %)” value (shortened to “Reduction … (in %)”) [1, 3] of the same compound?
A: 50%

Q: And the “Reduction … (difference)” value [1, 4]?
A: 35

Q: What about the “Reduction … (in %)” value [1, 4] of the same compound?
A: 70%

Q: What about the “Reduction … (difference)” value [1, 5] of the same compound?
A: 25

Q: And the “Reduction … (in %)” value [1, 5]?
A: 56%

Q: And the “Reduction … (difference)” value [1, 6]?
A: 30

Q: What about the “Reduction … (in %)” value [1, 6] of the same compound?
A: 100%

Q: What about the “Reduction … (difference)” value [1, 7] of the same compound?
A: 70

Q: What about the “Reduction … (in %)” value [1, 7] of the same compound?
A: 100%

Q: What about the “Reduction … (difference)” value [1, 8] of the same compound?
A: 15

Q: And the “Reduction … (in %)” value [1, 8]?
A: 25%

Q: And the “Reduction … (difference)” value [1, 9]?
A: 30

Q: And the “Reduction … (in %)” value [1, 9]?
A: 46%

Q: And the “Reduction … (difference)” value [1, 10]?
A: 40

Q: What about the “Reduction … (in %)” value [1, 10] of the same compound?
A: 80%

Q: And the “Reduction … (difference)” value [1, 11]?
A: 60

Q: And the “Reduction … (in %)” value [1, 11]?
A: 100%

Q: What about the “Reduction … (difference)” value [1, 12] of the same compound?
A: 20

Q: What about the “Reduction … (in %)” value [1, 12] of the same compound?
A: 100%

Q: And the “Reduction … (difference)” value [1, 13]?
A: 50

Q: And the “Reduction … (in %)” value [1, 13]?
A: 83%

Q: And the “Reduction … (difference)” value [1, 14]?
A: 35

Q: And the “Reduction … (in %)” value [1, 14]?
A: 88%

Q: What about the “Reduction … (difference)” value [2, 15] of the same compound?
A: 25

Q: What about the “Reduction … (in %)” value [2, 15] of the same compound?
A: 42%

Q: And the “Reduction … (difference)” value [2, 16]?
A: 15

Q: What about the “Reduction … (in %)” value [2, 16] of the same compound?
A: 43%

Q: What about the “Reduction … (difference)” value [2, 3] of the same compound?
A: 30

Q: What about the “Reduction … (in %)” value [2, 3] of the same compound?
A: 100%

Q: What about the “Reduction … (difference)” value [2, 4] of the same compound?
A: 40

Q: And the “Reduction … (in %)” value [2, 4]?
A: 100%

Q: What about the “Reduction … (difference)” value [2, 17] of the same compound?
A: 30

Q: And the “Reduction … (in %)” value [2, 17]?
A: 75%

Q: And the “Reduction … (difference)” value [2, 7]?
A: 15

Q: And the “Reduction … (in %)” value [2, 7]?
A: 21%

Q: And the “Reduction … (difference)” value [2, 10]?
A: 20

Q: And the “Reduction … (in %)” value [2, 10]?
A: 50%

Q: What about the “Reduction … (difference)” value [2, 18] of the same compound?
A: 25

Q: What about the “Reduction … (in %)” value [2, 18] of the same compound?
A: 100%

Q: And the “Reduction … (difference)” value [2, 19]?
A: 25

Q: And the “Reduction … (in %)” value [2, 19]?
A: 100%

Q: What about the “Reduction … (difference)” value [2, 20] of the same compound?
A: 15

Q: And the “Reduction … (in %)” value [2, 20]?
A: 38%

Q: And the “Reduction … (difference)” value [2, 11]?
A: 70

Q: What about the “Reduction … (in %)” value [2, 11] of the same compound?
A: 100%

Q: What about the “Reduction … (difference)” value [2, 21] of the same compound?
A: 25

Q: What about the “Reduction … (in %)” value [2, 21] of the same compound?
A: 42%

Q: And the “Reduction … (difference)” value [2, 22]?
A: 20

Q: And the “Reduction … (in %)” value [2, 22]?
A: 80%

Q: And the “Reduction … (difference)” value [2, 13]?
A: 35

Q: What about the “Reduction … (in %)” value [2, 13] of the same compound?
A: 78%

Q: How did the “Reduction … (difference)” value [1, 6] turn out when COC(=O)COc1nc(-c2ccc(F)cc2F)n(-c2ccc(Cl)cc2F)n1 [Compound A5, methyl {[1-(4-chloro-2-fluorophenyl)-5-(2,4-difluorophenyl)-1H-1,2,4-triazol-3-yl]oxy}acetate] was run?
A: 30

Q: What about the “Reduction … (in %)” value [1, 6] of the same compound?
A: 100%

Q: What about the “Reduction … (difference)” value [1, 7] of the same compound?
A: 20

Q: And the “Reduction … (in %)” value [1, 7]?
A: 29%

Q: And the “Reduction … (difference)” value [1, 8]?
A: 40

Q: What about the “Reduction … (in %)” value [1, 8] of the same compound?
A: 67%

Q: What about the “Reduction … (difference)” value [1, 9] of the same compound?
A: 50

Q: What about the “Reduction … (in %)” value [1, 9] of the same compound?
A: 77%

Q: And the “Reduction … (difference)” value [1, 11]?
A: 60

Q: And the “Reduction … (in %)” value [1, 11]?
A: 100%

Q: What about the “Reduction … (difference)” value [1, 12] of the same compound?
A: 15

Q: What about the “Reduction … (in %)” value [1, 12] of the same compound?
A: 75%

Q: And the “Reduction … (difference)” value [1, 23]?
A: 15

Q: And the “Reduction … (in %)” value [1, 23]?
A: 38%

Q: What about the “Reduction … (difference)” value [2, 16] of the same compound?
A: 20

Q: And the “Reduction … (in %)” value [2, 16]?
A: 57%

Q: What about the “Reduction … (difference)” value [2, 7] of the same compound?
A: 20

Q: And the “Reduction … (in %)” value [2, 7]?
A: 29%

Q: And the “Reduction … (difference)” value [2, 8]?
A: 50

Q: What about the “Reduction … (in %)” value [2, 8] of the same compound?
A: 83%

Q: What about the “Reduction … (difference)” value [2, 9] of the same compound?
A: 55

Q: And the “Reduction … (in %)” value [2, 9]?
A: 92%

Q: What about the “Reduction … (difference)” value [2, 20] of the same compound?
A: 15

Q: And the “Reduction … (in %)” value [2, 20]?
A: 38%

Q: And the “Reduction … (difference)” value [2, 11]?
A: 70

Q: And the “Reduction … (in %)” value [2, 11]?
A: 100%

Q: C=C[C@]1(C(=O)N[C@H]2C=C[C@@H](C(=O)OC)C2)CC(c2cc(F)cc(F)c2)=NO1 [Compound B2.85, methyl (1S,4R)-4-[[[(5S)-3-(3,5-difluorophenyl)-5-vinyl-4H-1,2-oxazol-5-yl]carbonyl]amino]cyclopent-2-ene-1-carboxylate] was tested. Which “Damage to the plant by the herbicide (in %)” value (from here on “Damage to the plant … (in %)”) [1] did it give?
A: 60%

Q: What about the “Damage to the plant … (in %)” value [2] of the same compound?
A: 60%

Q: What does the source list for C[C@]1(C(=O)N[C@H]2C=C[C@@H](C(=O)O)C2)CC(c2cc(F)cc(F)c2)=NO1 [Compound B2.92, (1S,4R)-4-[[(5R)-3-(3,5-difluorophenyl)-5-methyl-4H-isoxazole-5-carbonyl]amino]cyclopent-2-ene-1-carboxylic acid]?
A: Damage to the plant by the herbicide (in %) [1]: 65%; Damage to the plant by the herbicide (in %) [2]: 60%

Q: Which “Damage to the plant … (in %)” value [1] does the source give for CC1(C)CON(Cc2ccccc2Cl)C1=O [Compound B5.14, clomazone, reference compound] here?
A: 40%

Q: And the “Damage to the plant … (in %)” value [2]?
A: 40%
